A short description of data set [1]: Gemcitabine transport in orthotopic xenograft tumors, transport testing system, HPLC. To be noted: constant current 20 mA, 20 minutes, tumors 1.25 to 1.5 cm. In kind it is in vitro ADME. The protocol:
To assess and optimize the electrical transport parameters in tissue, a transport testing system was built (see FIG. 32A). The transport of gemcitabine, the current standard-of-care therapy for pancreatic cancer, was evaluated in orthotopic xenograft tumors using this transport testing system (see FIG. 32B). The tumors chosen for the studies were 1.25 to 1.5 cm in diameter because of compatibility with the size of the transport cell. The gemcitabine was used according to the current clinical formulation (Gemzar® to Eli Lilly and Company), at a concentration relevant to that administered in the clinic. For three tumors, a constant current of 20 mA was applied for 20 minutes, and the amount of gemcitabine was evaluated using a high-performance liquid chromatography (HPLC) analysis method. For three additional tumors, no current was applied, which allowed for passive diffusion of the gemcitabine into the tumor, and the amount of gemcitabine was evaluated using the same HPLC analysis method.

The nature of data set [2]: Plasma concentrations of gemcitabine, implantable device on canine pancreas, UV-HPLC. More on the design: key to Gem Concentration (plasma): *: Below limit of detection. Type of data set: in vivo. The protocol:
The reservoir based system similar to that shown in FIGS. 33A-D was surgically implanted onto the pancreas of a canine. All animal models were anesthetized and attached to a respirator for the entirety of the study. The implantable device approach was assessed via a laparotomy. The pancreas was assessed for ease of access.
There were three arms for the large animal experiment: 1. Device with current; 2. Device without current; and 3. IV Infusion (see Table 2). The device was sutured onto the right lobe of the canine pancreas. Gemcitabine formulated at clinically relevant concentrations was pumped into and out of the device at ˜1.5 mL/min during the application of 10 mA of current applied for 60 minutes. Control experiments were run without current. After administration of therapy, the pancreas was excised and snap frozen for analysis. The gemcitabine was measured from the section tissue using UV-HPLC from established protocols in the literature (see Olive, K P, et al. Science 324 (2009) 1457-1461 and Kirstein M N, et al., J Chromatogr B Analyt Technol Biomed Life Sci. 835 (2006) 136-142). Shown in FIG. 34 are the results obtained from the three experimental arms analyzing the mass of gemcitabine from the entire pancreas.
In FIG. 35, the transport distance of the gemcitabine is shown for the with and without current arms. […] Plasma concentrations of gemcitabine were detected at 15-minute increments prior to and during the large animal study. The tissue was sectioned using a cryostat microtome and gemcitabine was extracted using an established extraction method (see Olive et al.). The gemcitabine was detected and quantified using UV-HPLC (see Olive et al. and Kirstein et al.).

Take `Nc1ccn([C@@H]2O[C@H](CO)[C@@H](O)C2(F)F)c(=O)n1` [Gemcitabine, gemcitabine]: the “increase in the amount of gemcitabine within tumor compared to the control (no current applied)” value in data set [1] is “eight-fold increase”. For the same compound, the “Gem Concentration (plasma)” value in data set [2] (Device - Current Applied (10 mA), sample 0 min) was “*”; in data set [2] (Device - Current Applied (10 mA), sample 15 min) it was “*”; in data set [2] (Device - Current Applied (10 mA), sample 30 min), “*”; in data set [2] (Device - Current Applied (10 mA), sample 45 min), “*”; in data set [2] (Device - Current Applied (10 mA), sample 60 min), “*”; in data set [2] (Device - Current Applied (10 mA), sample −15 min), “*”. The “Gem Concentration (plasma)” value in data set [2] (Device - No Current, sample 0 min) is listed as “*”; in data set [2] (Device - No Current, sample 15 min) it was “*”; in data set [2] (Device - No Current, sample 30 min), “*”; in data set [2] (Device - No Current, sample 45 min) it was “*”; in data set [2] (Device - No Current, sample 60 min), “*”; in data set [2] (Device - No Current, sample −15 min), “*”. Further, in data set [2] (with and without current arms, device on pancreas), the “gemcitabine levels detected in the plasma of the dogs” value is “below the detectable limit”.

The record behind these values is US10695562B2, “Interventional drug delivery system and associated methods” (The University of North Carolina at Chapel Hill, priority 2009, dated 2020).
